From ChEMBL document CHEMBL5120927, “LEGO-Lipophosphonoxins: A Novel Approach in Designing Membrane Targeting Antimicrobials” (J Med Chem, 2022)

Key:
Escherichia coli [1] = experiment: Antibacterial activity against Escherichia coli ATCC 25922 = CCM 3954 assessed as inhibition of bacterial growth incubated for 24 hrs in presence of BSA by microdilution assay; assay type: functional
Escherichia coli [2] = experiment: Antibacterial activity against Escherichia coli ATCC 25922 = CCM 3954 assessed as inhibition of bacterial growth incubated for 24 hrs by microdilution assay; assay type: functional
[3] = Gradient chromatographic hydrophobicity index of the compound at pH 3.7 by HPLC analysis; assay type: ADME
Staphylococcus aureus [4] = experiment: Antibacterial activity against Staphylococcus aureus ATCC 29213 = CCM 4223 assessed as inhibition of bacterial growth incubated for 24 hrs in presence of BSA by microdilution assay; assay type: functional
Staphylococcus aureus [5] = experiment: Antibacterial activity against methicillin resistant Staphylococcus aureus 4591/A assessed as reduction in microbial growth incubated for 24 hrs by microdilution assay; assay type: functional
Pseudomonas aeruginosa [6] = experiment: Antibacterial activity against Pseudomonas aeruginosa ATCC 27853 = CCM 3955 assessed as inhibition of bacterial growth incubated for 24 hrs by microdilution assay; assay type: functional
Enterococcus faecalis = experiment: Antibacterial activity against Enterococcus faecalis ATCC 29212 = CCM 4224 assessed as inhibition of bacterial growth incubated for 24 hrs by microdilution assay; assay type: functional
Pseudomonas aeruginosa [7] = experiment: Antibacterial activity against multidrug-resistant Pseudomonas aeruginosa assessed as reduction in microbial growth incubated for 24 hrs by microdilution assay; assay type: functional
[8] = tested on: Staphylococcus epidermidis; experiment: Antibacterial activity against Staphylococcus epidermidis CCM 7221 assessed as inhibition of bacterial growth incubated for 24 hrs by microdilution assay; assay type: functional
Enterococcus faecium = experiment: Antibacterial activity against vancomycin resistant Enterococcus faecium 419/ANA assessed as reduction in microbial growth incubated for 24 hrs by microdilution assay; assay type: functional
[9] = Hemolytic activity in human RBC assessed as haemoglobin release measured after 3 hr; assay type: toxicity, cell-based, Erythrocyte; settings: red blood cells (erythrocytes)
Escherichia coli [10] = experiment: Antibacterial activity against multidrug-resistant Escherichia coli CE5556 expressing CTX-M-15 assessed as reduction in microbial growth incubated for 24 hrs by microdilution assay; assay type: functional
Staphylococcus aureus [11] = experiment: Antibacterial activity against Staphylococcus aureus ATCC 29213 = CCM 4223 assessed as inhibition of bacterial growth incubated for 24 hrs by microdilution assay; assay type: functional

Structure (SMILES)	MIC (Escherichia coli [1]) [µg/mL]	MIC (Escherichia coli [2]) [µg/mL]	CHI [3]	MIC (Staphylococcus aureus [4]) [µg/mL]	MIC (Staphylococcus aureus [5]) [µg/mL]	MIC (Pseudomonas aeruginosa [6]) [µg/mL]	MIC (Enterococcus faecalis) [µg/mL]	MIC (Pseudomonas aeruginosa [7]) [µg/mL]	MIC [8] [µg/mL]	MIC (Enterococcus faecium) [µg/mL]	HC50 at 3 h [9] [µg/mL]	MIC (Escherichia coli [10]) [µg/mL]	MIC (Staphylococcus aureus [11]) [µg/mL]
Cl.Cl.Cl.Cl.Cl.Cl.NCCCN(CCCN)CCP(=O)(OCCCCCCOP(=O)(CCN(CCCN)CCCN)OCCC12CC3CC(CC(C3)C1)C2)OCCC12CC3CC(CC(C3)C1)C2 (stereo not given)	1	> 128	38.4	0.2	0.5	1	1	2	0.5	2	72.2	1	0.5
CCCCCCCCOP(=O)(CCN(CCCN)CCCN)OCCOCc1ccccc1.Cl.Cl.Cl (stereo not given)	> 132	> 128	–	> 128	–	> 128	128	–	–	–	> 100	–	128
Cl.Cl.Cl.Cl.Cl.Cl.NCCCN(CCCN)CCP(=O)(OCCCOP(=O)(CCN(CCCN)CCCN)OCC1CCCC1)OCC1CCCC1 (stereo not given)	> 128	> 128	5	> 128	> 128	> 128	> 128	> 128	> 128	> 128	> 1000	> 128	> 128
CCC/C=C\CCOP(=O)(CCN(CCCN)CCCN)OCCCCCCCOP(=O)(CCN(CCCN)CCCN)OCC/C=C\CCC.Cl.Cl.Cl.Cl.Cl.Cl (stereo not given)	64	4	31.3	8	4	128	64	128	2	128	> 200	16	4
CCCCOP(=O)(CCN(CCCN)CCCN)OCCCCCCCCOP(=O)(CCN(CCCN)CCCN)OCCCC.Cl.Cl.Cl.Cl.Cl.Cl (stereo not given)	> 128	128	11	> 128	> 128	> 128	> 128	> 128	64	> 128	> 100	> 128	> 128
CCCCC/C=C\CCCOP(=O)(CCN(CCCN)CCCN)OCCCCCCOP(=O)(CCN(CCCN)CCCN)OCCC/C=C\CCCCC.Cl.Cl.Cl.Cl.Cl.Cl (stereo not given)	1	0.5	40.6	1	0.5	2	1	2	0.5	2	43	1	0.5
CCCCCOP(=O)(CCN(CCCN)CCCN)OCCCCCCCCCCCCCCOP(=O)(CCN(CCCN)CCCN)OCCCCC.Cl.Cl.Cl.Cl.Cl.Cl (stereo not given)	–	2	38.1	–	1	4	1	–	0.5	2	–	2	–
Cl.Cl.Cl.Cl.Cl.Cl.N=C(N)NCCCN(CCCNC(=N)N)CCP(=O)(OCCCCCCCOP(=O)(CCN(CCCNC(=N)N)CCCNC(=N)N)OCCCC(F)(F)F)OCCCC(F)(F)F (stereo not given)	128	1	25.2	16	8	> 128	> 128	> 128	8	> 128	> 200	128	8
CCCCCCCCCCCCCCCOP(=O)(CCN(CCCN)CCCN)OCC.Cl.Cl.Cl (stereo not given)	> 129	1	–	> 128	–	2	2	–	–	–	6.9	–	2
CCCCCCCCCOP(=O)(CCN(CCCN)CCCN)OCCOCc1ccccc1.Cl.Cl.Cl (stereo not given)	> 128	64	–	> 128	–	64	32	–	–	–	79.8	–	32
CCCCCCCCCOP(=O)(CCN(CCCN)CCCN)OCCc1ccc([N+](=O)[O-])cc1.Cl.Cl.Cl (stereo not given)	128	16	–	64	–	8	16	–	–	–	50	–	8
CCCCCCCCCCCCOP(=O)(CCN(CCCN)CCCN)OCCCCCCCCCCCC.Cl.Cl.Cl	–	100	–	–	–	100	25	–	–	–	11.3	–	100
CCCCCCOP(=O)(CCN(CCCN)CCCN)OCCCCCCCCCCCCCCOP(=O)(CCN(CCCN)CCCN)OCCCCCC.Cl.Cl.Cl.Cl.Cl.Cl (stereo not given)	–	1	40.6	–	1	2	1	–	0.5	2	–	1	–
CCCCCOP(=O)(CCN(CCCN)CCCN)OCCCCCCCCCCCCOP(=O)(CCN(CCCN)CCCN)OCCCCC.Cl.Cl.Cl.Cl.Cl.Cl (stereo not given)	16	16	34.7	8	1	4	2	4	0.5	16	444	32	–
CCCCCCCCCCCCCCOP(=O)(CCN(CCCN)CCCN)OCCc1c[nH]c2ccccc12.Cl.Cl.Cl.Cl (stereo not given)	–	2	–	–	–	2	4	–	–	–	12.4	–	2
CCCCCCCCCCCCCCOP(=O)(CCN(CCCN)CCCN)OCC.Cl.Cl.Cl (stereo not given)	> 128	4	–	> 128	–	4	4	–	–	–	12.2	–	4
CCCCCCCCCOP(=O)(CCN(CCCN)CCCN)OCCc1ccc(N)cc1.Cl.Cl.Cl.Cl (stereo not given)	> 128	128	–	> 128	–	128	128	–	–	–	> 100	–	64
CCCCCCOP(=O)(CCN(CCCN)CCCN)OCCCCCCCCCCCCOP(=O)(CCN(CCCN)CCCN)OCCCCCC.Cl.Cl.Cl.Cl.Cl.Cl (stereo not given)	–	1	37.7	–	0.5	2	0.5	–	0.125	2	–	2	–
CCCCCCCCCOP(=O)(CCN(CCCN)CCCN)OCCc1ccc(Cl)cc1.Cl.Cl.Cl (stereo not given)	64	2	–	64	–	8	2	–	–	–	17.3	–	2
CCCCOP(=O)(CCN(CCCN)CCCN)OCCCCCCCCCCCCCCOP(=O)(CCN(CCCN)CCCN)OCCCC.Cl.Cl.Cl.Cl.Cl.Cl (stereo not given)	–	16	35.2	–	2	4	4	–	0.5	16	–	32	–
CCCCCCCCCCCCOP(=O)(CCN(CCCN)CCCN)OCCc1c[nH]c2ccccc12.Cl.Cl.Cl.Cl (stereo not given)	–	4	–	–	–	8	4	–	–	–	12.1	–	2
CCCCCCOP(=O)(CCN(CCCN)CCCN)OCCc1cccc2ccccc12.Cl.Cl.Cl (stereo not given)	> 131	> 128	–	> 128	–	64	64	–	–	–	> 100	–	64
CCCCCCCCCOP(=O)(CCN(CCCN)CCCN)OCCOCc1ccc(OC)cc1.Cl.Cl.Cl (stereo not given)	> 133	32	–	128	–	16	16	–	–	–	55	–	16
CC(C)COP(=O)(CCN(CCCN)CCCN)OCCCCCCCCCCCCCCOP(=O)(CCN(CCCN)CCCN)OCC(C)C.Cl.Cl.Cl.Cl.Cl.Cl (stereo not given)	–	16	27.3	–	4	4	4	–	0.5	16	–	16	–
CCCCCCCCCCCCCCCCOP(=O)(CCN(CCCN)CCCN)OCC.Cl.Cl.Cl (stereo not given)	> 130	2	–	128	–	4	2	–	–	–	9.4	–	2
CCCCCCCCCOP(=O)(CCN(CCCN)CCCN)OCCc1cccc2ccccc12.Cl.Cl.Cl (stereo not given)	64	4	–	64	–	4	2	–	–	–	12.8	–	2
CCCCCCCCCOP(=O)(CCN(CCCN)CCCN)OCCc1ccccc1.Cl.Cl.Cl (stereo not given)	–	32	–	–	–	16	32	–	–	–	58.7	–	16
CCCCCCCCOP(=O)(CCN(CCCN)CCCN)OCCCCCCCCCCCCOP(=O)(CCN(CCCN)CCCN)OCCCCCCCC.Cl.Cl.Cl.Cl.Cl.Cl (stereo not given)	–	1	432	–	1	2	1	–	0.5	1	–	1	–
